Laboratory results: patent US20080317769A1, “Vaccine Composition Comprising Alpha-Galactosylceramide as an Adjuvant For Intranasal Administration” (priority 2005, published 2008)

How the values were obtained:
[1] = tested on: influenza virus A/PR/8/34; parameters: species or system Balb/c mice; details: mouse, in vivo
live PR8 virus = test: Plaque assay of live PR8 virus in the lung wash after 20 LD50 challenge; type: in vivo; details: Balb/c mice; 10 μg inactivated PR8 + αGalCer intranasal; three days after 20 LD50 live PR8
Method: (§1) To examine the role of αGalCer as an adjuvant of a killed virus, influenza virus A/PR/8/34 (PR8), which was inactivated with formalin, was used as an antigen to examine the anti-virus immune response. Balb/c mice were immunized with indicated amounts (1 μg, 10 μg) of inactivated PR8 alone or together with αGalCer by the intranasal administration twice at two-week intervals. Two weeks after the final immunization, the mice were sacrificed and following experiments were performed.
Immunized mice were infected with 20 LD50 of live PR8 virus and sacrificed three days later to obtain the lung wash. The amounts of live PR8 virus in the lung wash were measured by plaque assay. Particularly, MDCK cells (purchased from ATCC) were cultured in a 6 well plate at the density of 95-100%. The lung wash was 10-fold diluted by using a medium serially, which was added to the plate, followed by infection for one hour. Then, the lung wash was eliminated. An agarose containing medium was added thereto, followed by further culture in a CO2 incubator for 2-3 days. The numbers of plaques formed therein were counted with the naked eye.

[2] = tested on: PR8 HA-specific antibody responses; parameters: species or system Balb/c mice; details: mouse, in vivo
[3] = tested on: IFN-γ-producing CD8+ T cells; test: IFN-γ-producing CD8+ T cells by intracellular cytokine staining, Balb/c mice, OVA; type: in vivo; details: splenocytes cultured 4 days with 500 μg/ml OVA, with the increase of αGalCer concentration
Method: OVA dose not include an epitope peptide binding to a MHC class I molecule in Balb/c mouse. So, to investigate cytotoxic activity induced by αGalCer adjuvant in the Balb/c mouse, the numbers of IFN-γ-producing CD8+ T cells were measured (FIG. 11). Particularly, the cells (2×10^6 cells/ml) were cultured for 4 days with 500 μg/ml of OVA, to which 1 μl/ml of GolgiPug™ (BD Pharmigen, USA) was added 6 hours before termination of the culture. Then, staining was performed by using FITC-conjugated CD3 mAb (Clone 145-2C11, Biolegend Inc, USA), PE-conjugated CD8 mAb (Clone 53-6.7, Biolegend Inc, USA) and APC-conjugated IFN-γ mAb (Clone XMG1.2, Biolegend Inc, USA). Intracellular staining was performed with BD Cytofix/Cytoperm Plus™ (BD Pharmigen, USA) according to the manufacturer's instruction, and the stained cells were analyzed with FACSCalibur (BD Bioscience, USA) and CellQuest software (BD Bioscience, USA).

[4] = tested on: IFN-γ-producing CD8+ T cells; test: IFN-γ-producing CD8+ T cells after β-galactosidase stimulation of spleen cells (Ad-LacZ immunization); type: in vivo; details: Balb/c mice; Ad-LacZ + 0.125 μg αGalCer intranasal; spleen cells stimulated with 2.5 μg/mL β-galactosidase for 5 days
Method: Balb/c mice were immunized with 10^6 pfu of replication-deficient live adenovirus harboring beta-galactosidase gene (Ad-LacZ) (Viromed, Korea) alone or together with 0.125 μg of αGalCer by the intranasal administration, two times at two-week intervals. One week after the final immunization, the nasal wash, the lung wash and serum were separated, by the same manner as described in Example 1, to measure β-galactosidase-specific antibody response. In addition, to measure CTL activity, spleen cells were stimulated by 2.5 μg/mL of β-galactosidase for 5 days and IFN-γ-producing CD8+ T cells were examined by intracellular cytokine staining according to the procedure as described in Example <4-2>.

[5] = tested on: IFN-γ and IL-4 production; test: IFN-γ and IL-4 production of spleen and CLN cells cultured with inactive PR8; type: in vivo; details: Balb/c mice; inactivated PR8 + αGalCer intranasal; cells cultured with inactive PR8 for 5 days
Method: as §1
The supernatants were obtained and the levels of IFN-γ and IL-4 therein were measured by the same manner as described in Example 2.

CD1d = molecular target: T1, CD1d (Mus musculus, UniProt P11609); test: Systemic IgG and in vivo CTL activity in wild type versus CD1d−/− C57BL/6 mice; details: CD1d−/− vs wild type C57BL/6 mice; OVA + αGalCer intranasal three times at one-week intervals
T1 construct: host or cells: antigen presenting cells of living C57BL/6 mice (in vivo)
T1 sequence (P11609 22-336): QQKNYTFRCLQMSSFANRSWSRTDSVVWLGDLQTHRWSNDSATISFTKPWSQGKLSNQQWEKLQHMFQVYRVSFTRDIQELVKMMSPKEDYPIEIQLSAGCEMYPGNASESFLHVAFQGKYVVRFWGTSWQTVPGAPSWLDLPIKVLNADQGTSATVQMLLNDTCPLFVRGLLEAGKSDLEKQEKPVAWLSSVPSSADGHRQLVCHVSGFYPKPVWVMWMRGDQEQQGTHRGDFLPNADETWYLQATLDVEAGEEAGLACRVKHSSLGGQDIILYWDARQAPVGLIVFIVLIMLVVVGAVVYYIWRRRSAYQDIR
T1 sequence (P01887 21-119 partner): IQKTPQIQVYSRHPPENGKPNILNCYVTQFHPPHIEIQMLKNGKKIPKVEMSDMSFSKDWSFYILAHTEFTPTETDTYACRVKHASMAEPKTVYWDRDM
Method: To investigate whether the immune responses induced by αGalCer were mediated by CD1d, NKT deficient (resulted from the lack of CD1d) CD1d−/− C57BL/6 mice (Charles River Lab., Orient Co. Ltd., Korea) were used for the experiment (Park et al., J. Exp. Med., 193: 893, 2001). On the first week of the final intranasal administration, systemic IgG level in serum and in vivo CTL activity were measured in both wild type and CD1d−/− C57BL/6 mice by the same manner as described in Example 1 and Example 3.

[6] = tested on: OT1 cells (OVA specific CD8+ T cells); test: CD25 surface expression of adoptively transferred CFSE-labeled OT1 cells in CLN (FACS); type: in vivo, mouse; details: 100 μg OVA + 2.0 μg αGalCer intranasal vs OVA alone; 48 hours later
Method: To investigate the effect of αGalCer on the activation of T cells, the surface expression of CD25 in CFSE-labeled OT1 cells (OVA specific CD8+ T cells), which were adoptively transferred into syngenic mice, was measured. OT1 cells were separated from OT1 mouse by using CD8α (Ly-2) magnetic bead (Mitenyl Biotech), which were labeled with 10 μM of CFSE at 37° C. for 15 minutes and then transferred intravenously into a syngenic mouse. One day after the adoptive transfer, the intranasal administration of 100 μg of OVA alone or together with 2.0 μg of αGalCer was performed thereto. 48 hours later, the expression of CD25 in CLN was investigated with FACS.

[7] = mouse treated with 2200 μg/Kg of αGalCer; cited from earlier work

## CCCCCCCCCCCCCCCCCCCCCCCCCC(=O)N[C@@H](CO[C@H]1O[C@H](CO)[C@H](O)[C@H](O)[C@H]1O)[C@H](O)[C@H](O)CCCCCCCCCCCCCC [αGalCer, alpha-galactosylceramide]
[1]
  weight loss recovery after virus infection: rapid rate of weight loss recovery
Live PR8 virus
  plaques of live PR8 virus in the lung wash: no plaque was observed
[2]
  PR8 HA-specific IgG antibody in serum: high level
[3]
  numbers of IFN-γ-producing CD8+ T cells, relation to αGalCer concentration: decreased
[4]
  numbers of IFN-γ-producing CD8+ T cells: significant increase
[5]
  levels of Th1 cytokine IFN-γ and Th2 cytokine IL-4 in spleen and CLN: significantly increased
CD1d
  CTL lytic activity in draining lymph node and systemic lymphoid organs of CD1d−/− mice: inhibited
  systemic IgG antibody response in CD1d−/− mice: significantly inhibited
[6]
  level of OT1 cells expressing CD25 in CLN: higher
[7]
  side effects: no side effects
